Laboratory results reported in patent US20160151486A1, “CD40 Signalling Inhibitor and a Further Compound, Wherein the Further Compound is a Bile Acid, a Bile Acid Derivative, an TGR5-Receptor Agonist, an FXR Agonist or a Combination Thereof, for the Treatment of Chronic Inflammation, and the Prevention of Gastrointestinal Cancer or Fibrosis” (Fast Forward Pharmaceuticals B.V., priority 2013, published 2016).

How the values were obtained:
[1] = system: peripheral blood mononuclear cells (PBMC); test: Cytokine secretion by PBMC stimulated with megaCD40L (after IFN-γ); format: cell-based, human; details: megaCD40L stimulus
Procedure: (§1) PBMC were freshly isolated from heparinized human blood using Fycoll density gradient centrifugation (Histopaque; Sigma Diagnostics). PBMC were cultured in RPMI containing 10% FCS in round-bottom 96-well plates at a concentration of 5×10E5 cells/mL. Two different stimuli were used to induce cytokine secretion from PBMC: • 1. PBMC were cultured in the presence of IFN-γ (250 U/mL) for 24 hours to induce upregulation of CD40. The CD40 pathway was subsequently activated for 24 hours with megaCD40L (100 ng/mL, Enzo Life Sciences). • 2. PBMC were cultured in the presence of IFN-γ for 24 hours to induce upregulation of CD40. Cells were subsequently stimulated for 24 hours with megaCD40L (100 ng/mL) and LPS (100 ng/mL).
(§2) Stimulated PBMC were cultured in the absence or presence of variable concentrations of PG102 (5, 10 and 100 ng/mL) and/or 6-ECDCA (0.1, 1 and 5 μM). PG102 was added simultaneously with the stimulus. In contrast, 6-ECDCA was added 3 hours before adding the stimulus. At the end of the culture period, supernatants were collected and stored at −80° C. until cytokine analysis was performed. The BD cytometric Bead Array (CBA) Human Inflammatory Cytokines Kit (BD Biosciences) was used to measure IL-1β, IL-8, IL-6, TNF and IL-12p70 levels in the culture supernatants. The assay was performed according to the manufacturer's instructions. In brief, capture beads for the cytokines of interest were mixed with supernatant or human inflammatory cytokine standards and PE detection reagent. Samples were incubated for 3 hours at room temperature in the dark. Subsequently, samples were washed and analyzed on a FACS CANTO II cytometer (BD Biosciences). Data was analyzed using de FCAP Array software (BD Biosciences).

[2] = system: peripheral blood mononuclear cells (PBMC); test: Cytokine secretion by PBMC stimulated with megaCD40L and LPS (after IFN-γ); format: cell-based, human
Procedure: as §1, §2

C57/Bl6 wild type mice = test: DSS-induced colitis mouse model; format: in vivo
Procedure: Colitis was induced in C57/Bl6 wild type mice by administration of 2.5% (wt/vol) Dextran Sodium Sulphate (DSS; MW. 36000-50000 Da, MP Biochemicals Inc) in drinking water for 8 days. Pharmacological activation of FXR was accomplished by treatment with 6-ethyl-chenodeoxycholic acid (6-ECDCA). 6-ECDCA (10 mg/kg/day) or vehicle were administered by oral gavage for three days prior to the start of DSS-treatment, and continued until the end of the DSS-treatment. At the second day of DSS treatment (day 4 of 6-ECDCA treatment), mice were given an intraperitoneal (i.p.) injection with 250 μg of the hamster antibody against mouse CD40L, MR-1, or control IgG (LEAF™ Purified Armenian Hamster IgG Isotype Ctrl Antibody, Biolegend).
There were 5 treatment groups (n=10 mice/group) in the experiment: […]
Daily changes in body weight were assessed and the body weight at day 2-11 was expressed relative to the body weight at day 1. […] 4 h after FITC administration, mice were sacrificed and the amount of fluorescence in the blood was determined as a marker for permeability. The colon was isolated and colon length was measured. […] Granulocytes were identified based on GR-1 and CD11b expression and expressed as percentage of living cells in the spleen. […] Culture supernatants were collected and TNF was measured using an ELISA.

[3] = system: chemically induced intestinal inflammation; details: in vivo; cited from earlier work
[4] = system: LPS-induced TNF production; details: cited from earlier work
[5] = 6-ECDCA 5 μM, megaCD40L and LPS stimulus

## CC[C@H]1[C@@H](O)[C@@H]2[C@H](CC[C@]3(C)[C@@H]([C@H](C)CCC(=O)O)CC[C@@H]23)[C@@]2(C)CC[C@@H](O)C[C@@H]12 [6-ECDCA, 6-ethyl-chenodeoxycholic acid]
[1]; 6-ECDCA 5 μM
  inhibition of IL-1β release: 35%
  inhibition of IL-6 release: 18%
  inhibition of IL-8 release: 17%
  inhibition of IL-12p70 release: 20%
  inhibition of TNF release: 14%
[1]; 6-ECDCA alone at 0.1 or 1 μM
  release of TNF, IL-6, IL-8, IL-1β and IL-12p70: did not inhibit
[2]; [5]
  inhibition of IL-1β: 12%
  inhibition of IL-6: 0%
  inhibition of IL-8: 9%
  inhibition of IL-12p70: 22%
  inhibition of TNF: 21%
[2]; activation of the CD40 pathway alone or in combination with the TLR-4 pathway
  inhibiting proinflammatory cytokine release: not very effective
C57/Bl6 wild type mice; 6-ECDCA 10 mg/kg/day oral gavage, MR-1 250 μg i.p. once, second day of DSS
  colitis disease process induced by DSS: interfered with the colitis disease process
C57/Bl6 wild type mice; end of experiment, FIG. 11
  granulocytes in the spleen (GR-1, CD11b; FACS): increase in granulocytes
[3]
  chemically induced intestinal inflammation: interfere with chemically induced intestinal inflammation
[4]
  LPS-induced TNF production: inhibit LPS-induced TNF production in a dose-dependent fashion
